From patent publication US20230099567A1, “COMPOSITION FOR TREATMENT, PREVENTION, OR AMELIORATION OF LYMPHEDEMA” (RAPPELER CO., LTD., priority 2020, published 2023) come the findings set out here.

Like-named read-outs stand apart in the source and are kept apart here.

One series has as its system lymphedema tissue. As to the kind of experiment: Histological (H&E) analysis of lymphedema tissue of the right hind leg. It is filed as in vivo. The conditions noted are these: 7th day after surgery, right hind leg of mouse. An excerpt: (§1) Tissue samples were collected on the 7th day after surgery to induce lymphedema at a location 15 mm-25 mm from the right leg of the mouse. The harvested tissue samples were fixed with 10% formalin solution, and the specimens were cut to a thickness of 5 μm. Sections were deparaffinized in 100% xylene, rehydrated with a series of 100% ethanol, 95% ethanol, 90% ethanol, 80% ethanol, and 70% ethanol, and washed with water. Sections were reacted with hematoxylin solution at room temperature. After washing in PBS, sections were stained with eosin at room temperature. Images were acquired by a Pannoramic viewer microscope (3[…] Ltd., Hungary). Prepared slides were incubated using anti-mouse PPARγ (Santa Cruz Biotechnology, USA) and Alexa Fluor 488 and DAPI (Life Technologies, USA). Samples were analyzed using a Nikon ECLIPSE 80i microscope (Nikon Instruments Inc., Japan).
In FIG. 3A, the scale bar of the upper panel is 500 μm, and the scale bar of the lower panel is 100 μm.
In FIG. 4A, the scale bar of the upper panel is 200 μm, and the scale bar of the lower panel is 100 μm.

A short description of series [1]: Pharmacokinetic analysis in mice after I.V. and oral administration. It is filed as in vivo, mouse. The following applies: for BA (bioavailability): (AUCpo/AUCiv)×100; for AUC(0-inf) / Cmax: mouse, plasma; for Cmax: read-out: Cmax (maximum plasma concentration). Here is the method: Compounds were administered to 5-week-old male CD-1 mice through 1 mg/kg tail vein administration (administration volume of 5 mL/kg), 20 mg/kg oral administration, and 100 mg/kg oral administration, respectively. Three mice were used for each independent experiment. Blood samples were taken in an amount of 20 μL to 30 μL via the saphenous vein at 5, 15, 30, 60, 120, 180, 360, and 1440 minutes.
In addition, pharmacokinetic parameters were calculated from non-compartmental analysis using Win Non-lin.
In Table 3, T1/2 denotes the terminal half-life, Cmax denotes the maximum plasma concentration, AUC-O denotes the area under the plasma concentration-time curve from time zero to infinity, and indicates exposure concentration of whole blood, and BA represents bioavailability expressed as (AUCpo/AUCiv)×100. […] Cmax and AUC∞ are mean±SD values obtained from three male ICR mice. Regarding blood exposure during systemic circulation of the compound, the compound was orally administered at an amount of 100 mg/kg, and then, AUC (area under the curve) was measured, and the obtained measurements were compared.

The nature of series [2]: Physicochemical properties (pKa, logP, solubility). An excerpt: Compound 1 is butein and the therapeutic effect on lymphedema thereof is disclosed in Korean Patent Publication No. 10-1533197 (published on Jul. 2, 2015).
The subject of a further series is TNFα. The series can be described thus: mRNA expression of TNFα in lymphedema tissue. The conditions noted are these: 7th day after surgery, mouse. It is filed as in vivo. An excerpt: As a result, it was confirmed that the expression level of TNFα mRNA was decreased in the compound 1 treatment group and the compound 14a treatment group (with respect to the control group, *: P<0.05; with respect to compound 1, #: P<0.05).

The next series concerns PPARγ. As to the kind of experiment: Immunofluorescence staining of PPARγ in epidermal layer of lymphedema tissue. Format: in vivo. The following applies: mouse.
Excerpt: as §1
In addition, peroxisome […] (PPARγ) is a major regulator of lipogenesis, and as shown in FIG. 4B showing the results of immunofluorescence staining, the distribution of PPARγ in the epidermal layer of lymphedema tissue after treatment with compound 1 and compound 14a was suppressed.

The subject of series [3] is lymphedema induced in mice. The series can be described thus: Prophylactic effect on lymphedema formation, surgically induced murine lymphedema model (volume). It is filed as in vivo, mouse. The following applies: 7th day after surgery, oral administration 7 days before surgery, then once every two days, vs control group. Here is the method:
All animal tests in the following examples were performed after obtaining approvals by the Institutional Animal Care and Use Committee (IACUC) of Sungkyunkwan University School of Medicine (Approval No.: […]-20150037). All methods were performed according to the approved guidelines. […] Briefly, major lymphatic sites including inguinal lymph nodes, popliteal lymph nodes, deep inguinal lymph nodes and femoral lymphatic vessels were removed, and the lower right leg of the mouse was limitedly cauterized under anesthesia.
Compounds 1, 7m, and 14a were each orally administered to mice for 7 days before surgical induction of lymphedema in mice.
On the other hand, in the control group, the compound 1 treatment group, the compound 7m treatment group, and the compound 14a treatment group, lymphedema was induced through surgery. After surgery, the compounds were administered once every two days.
The volume of lymphedema was measured on the 7th day after surgery, and the size of the lymphedema was recorded using a caliper ruler by a person who was blinded to the treatment status of the mice.

The test system of series [4] is PPARγ and a target protein Fabp4. The series can be described thus: Expression of PPARγ and Fabp4 in lymphedema tissue (western blot, mRNA). It is filed as in vivo. The conditions noted are these: mouse. On the technique in general: Immunoblotting shows a protein as a band on a membrane.
The subject of series [5] is LPS-induced TNFα production in mouse peritoneal macrophages. The series can be described thus: LPS-induced TNFα production in mouse peritoneal macrophages (ELISA). The following applies: for IC50 / TNFα production inhibitory ability compared with butein (FIG. 1): mouse peritoneal macrophages; for IC50: 100 ng/ml LPS 24 h, measured twice, mean ± standard deviation, read-out: IC50, dose-dependent inhibition of TNFα production in macrophages; for IC50 value compared with positive control butein: TNFα production in macrophages; for TNFα production inhibitory ability compared with butein (FIG. 1): compound 20 μM, LPS-induced. It is filed as cell-based. Here is the method:
To isolate peritoneal macrophages, male Balb/c mice were intraperitoneally injected with 2 ml of 3.5% sterile thioglycolate (B D, Sparks, Md., USA) 4 days before being sacrificed. Mice were sacrificed by cervical dislocation, and peritoneal secretory cells were aseptically isolated through peritoneal washing with cold DMEM (HyClone, Logan, Utah, USA) containing 10% FBS (fetal bovine serum; HyClone) and 1% penicillin-streptomycin. After centrifugation, cells were resuspended and counted using a TC20 Cell Counter (Bio-Rad Laboratories, Hercules, Calif., USA). Peritoneal secretory cells were left in a 24-well plate overnight at 37° C., and non-adherent cells were removed. The cells were then stimulated with 100 ng/ml lipopolysaccharide (LPS) for 24 hours. The supernatant was collected during cytokine analysis, and the level of TNFα in the supernatant was measured using BD OptEIA mouse ELISA sets (BD Biosciences, San Diego, Calif., USA) according to the manufacturer's protocol. […] IC50 (μM) values were measured twice, respectively, and expressed as mean±standard deviation.
On the technique in general: An ELISA detects its analyte on a solid surface through an enzyme-linked reagent.

Where [6] appears, read: po, P.O, 20 mg/Kg, male CD-1 mice.
Setting [7] is: water solubility, read-out: Solubility.
[8] abbreviates: Mus musculus, Peritoneal macrophage, 24 h.

As for `COc1ccc(/C=C/C(=O)c2ccc(O)cc2O)cc1O` [7b, (E)-1-(2,4-dihydroxyphenyl)-3-(3-hydroxy-4-methoxyphenyl)prop-2-en-1-one], the melting point turned out to be 206.4 °C.
The same measure, in the same setting: with `O=C(/C=C/c1ccc(F)c(O)c1)c1ccc(O)cc1O` [7d, (E)-1-(2,4-dihydroxyphenyl)-3-(4-fluoro-3-hydroxyphenyl)prop-2-en-1-one] the figure was 252.4 °C; with `O=C(/C=C/c1ccc(O)c(O)c1)c1ccc(O)cc1F` [7g, (E)-3-(3,4-dihydroxyphenyl)-1-(2-fluoro-4-hydroxyphenyl)prop-2-en-1-one], 207.8 °C.
On the same count and under the same terms, with `CC(C)Oc1cc(O)ccc1C(=O)/C=C/c1ccc(O)c(O)c1` [7j, (E)-3-(3,4-dihydroxyphenyl)-1-(4-hydroxy-2-isopropoxyphenyl)prop-2-en-1-one] the figure was 80.4 °C.
Same read-out and setting: with `COc1ccc(C(=O)/C=C/c2ccc(O)c(O)c2)c(OC)c1` [7k, (E)-3-(3,4-dihydroxyphenyl)-1-(2,4-dimethoxyphenyl)prop-2-en-1-one] the figure was 162.9 °C.
Consider `O=C(/C=C/c1ccc(O)c(O)c1)c1ccc(O)cc1O` [compound 1, (E)-1-(2,4-dihydroxyphenyl)-3-(3,4-dihydroxyphenyl)prop-2-en-1-one, reference compound], for which the “development of adipose tissue in the epidermal layer (H&E, FIG. 4A)” value in the series with lymphedema tissue is given as “inhibiting the development of adipose tissue in the epidermal layer”. Besides, the “Cmax (maximum plasma concentration)” value in [1] (I.V, 1 mg/Kg, male CD-1 mice) stood at 41 ng/mL. The time to peak (Tmax) in series [1] (I.V, 1 mg/Kg, male CD-1 mice) turned out to be 6 min; in [1] (P.O, 20 mg/Kg, male CD-1 mice), 18 min; in series [1] (P.O, 100 mg/Kg, male CD-1 mice), 18 min. For the same molecule, the “BA (bioavailability)” value in series [1] (P.O, 20 mg/Kg, male CD-1 mice) came to 15%; in series [1] (P.O, 100 mg/Kg, male CD-1 mice) it was 37%. Moreover, in series [1] (mice), the “terminal half-life” value is “too short terminal half-life”. The AUC(0-inf) turned out to be 6.7 ng·h/mL in [1] (iv, I.V, 1 mg/Kg, male CD-1 mice) and 21 ng·h/mL in [1] (setting [6]). In addition, the Cmax in [1] (setting [6]) worked out at 43 ng/mL; in [1] (po, P.O, 100 mg/Kg, male CD-1 mice), 601 ng/mL. In series [2], the “logP (partition coefficient)” value is given as 0.42. The solubility in series [2] (setting [7]) was 21 µg/mL; in series [2] (water, read-out: water solubility), 79 µM. Besides, the “expression level of TNFα mRNA in lymphedema tissue (FIG. 3B)” value with TNFα is “decreased”. For the same molecule, the “distribution of PPARγ in the epidermal layer of lymphedema tissue (FIG. 4B)” value with PPARγ was “suppressed”. In addition, the “volume of lymphedema reduced by” value in series [3] was 52%. In addition, the “levels of PPARγ and Fabp4 mRNA (FIG. 4D)” value in [4] (lymphedema tissue) is “superior efficacy compared to the control group”. For the same molecule, the “expression of PPARγ and Fabp4 in lymphedema tissue (western blot, FIG. 4C)” value in [4] is recorded as “reduced the expression of PPARγ”. The IC50 worked out at 43 µM in [5] (setting [8]) and 43.3 ± 1.72 µM in [5]. Also, in series [5] (Mus musculus, Peritoneal macrophage, treated in vitro at 20 μM, read-out: efficacy (inhibition)), the inhibition at 20 µM came out at 10%.
`Cc1cc(O)ccc1C(=O)/C=C/c1ccc(O)c(O)c1` [compound 7h, (E)-3-(3,4-dihydroxyphenyl)-1-(4-hydroxy-2-methylphenyl)prop-2-en-1-one]: the melting point amounted to 208.2 °C. Also, the half-inhibitory concentration (IC50) in series [5] (setting [8]) was 48.4 ± 2.35 µM.
Molecule `Cc1ccc(C(=O)/C=C/c2ccc(O)c(O)c2)cc1` [compound 7l, (E)-3-(3,4-dihydroxyphenyl)-1-(p-tolyl)prop-2-en-1-one] had a melting point of 190.9 °C. The IC50 in [5] (setting [8]) turned out to be 18.6 ± 1.5 µM. For the same molecule, the “IC50 value compared with positive control butein” value in [5] is given as “significantly superior IC50 values compared to butein”.
As to `O=C(/C=C/c1ccc(O)c(O)c1)c1ccc(Cl)cc1` [compound 7m, (E)-1-(4-chlorophenyl)-3-(3,4-dihydroxyphenyl)prop-2-en-1-one], the “logP (partition coefficient)” value in [2] is given as 3.77. Also, in series [2] (setting [7]), the solubility amounted to 28 µg/mL. Further, in [3], the “volume of lymphedema reduced by” value is 53%. Further, the half-maximal inhibitory concentration (IC50) in [5] (setting [8]) was determined as 17.3 ± 2.11 µM. Also, in [5], the “IC50 value compared with positive control butein” value is given as “significantly superior IC50 values compared to butein”.
With `CC(=O)Oc1ccc(C(=O)/C=C/c2ccc(OC(C)=O)c(OC(C)=O)c2)c(OC(C)=O)c1` [compound 8a, (E)-4-(3-(2,4-diacetoxyphenyl)-3-oxoprop-1-en-1-yl)-1,2-phenylene diacetate], the melting point worked out at 131.3 °C. In addition, the IC50 in series [5] (setting [8]) is 12.8 ± 1.24 µM. In addition, in [5], the “IC50 value compared with positive control butein” value is reported as “significantly superior IC50 values compared to butein” and the “TNFα production inhibitory ability compared with butein (FIG. 1)” value is reported as “significantly better TNFα production inhibitory ability than the positive control butein treatment group”.
As to `O=C(Oc1ccc(C(=O)/C=C/c2ccc(OC(=O)c3ccccc3)c(OC(=O)c3ccccc3)c2)c(OC(=O)c2ccccc2)c1)c1ccccc1` [compound 8b, (E)-4-(3-(2,4-bis(benzoyloxy)phenyl)-3-oxoprop-1-en-1-yl)-1,2-phenylene dibenzoate], the melting point was 36.7 °C. Moreover, the “TNFα production inhibitory ability compared with butein (FIG. 1)” value in series [5] was “significantly better TNFα production inhibitory ability than the positive control butein treatment group”.
The molecule `Cc1ccc(C(=O)Oc2cc(O)ccc2C(=O)/C=C/c2ccc(O)c(O)c2)cc1` [compound 14b, (E)-2-(3-(3,4-dihydroxyphenyl)acryloyl)-5-hydroxyphenyl 4-methylbenzoate] registered a melting point of 185.7 °C. Further, the IC50 in series [5] (setting [8]) came to 18.9 ± 1.15 µM.
On the same counts, the results for `COc1ccc(C(=O)Oc2cc(O)ccc2C(=O)/C=C/c2ccc(O)c(O)c2)cc1` [compound 14c, (E)-2-(3-(3,4-dihydroxyphenyl)acryloyl)-5-hydroxyphenyl 4-methoxybenzoate] are 161.1 °C and 20.8 ± 1.62 µM.
Molecule `O=C(Oc1cc(O)ccc1C(=O)/C=C/c1ccc(O)c(O)c1)c1ccc(Cl)cc1` [compound 14d] yielded a melting point of 102.8 °C.

In general, melting point refers to the temperature of the solid-liquid transition. As a reminder, the Tmax is the time from dosing to the highest level. One may read the AUC(0-inf) as total exposure, with the tail of the curve extrapolated. A high value points to more exposure. Broadly, the solubility is how much of the substance goes into solution per volume. The term IC50 denotes the concentration at which inhibition is half-maximal. Broadly, the inhibition is the change of the read-out against control, counted positive when it falls.
